In the supplement of paper PMC10307832:

Legend:
Test in all cases: relative viability (nuclei count vs DMSO), 5 days (fraction); higher = more cells survive
DM3189 = compound: C1CN(CCN1)C2=CC=C(C=C2)C3=CN4C(=C(C=N4)C5=CC=NC6=CC=CC=C56)N=C3 [DM3189]
Procedure, shortened: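 Lung cancer cell lines received five library-drug doses (not always all listed) spaced by √10, pinned on vehicle-anchored 1536-well plates after an overnight stay at 37 °C. Five days later, with no medium change, nuclei were Hoechst-stained, imaged at 4× and counted with MetaXpress. Viability is treated-well nuclei relative to vehicle-well nuclei, as a median across plates. Passing plates had control CV below 25% and at least one doubling.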

DM3189 + Linsitinib = compound: C1CN(CCN1)C2=CC=C(C=C2)C3=CN4C(=C(C=N4)C5=CC=NC6=CC=CC=C56)N=C3 [DM3189] + C[C@]1(O)C[C@@H](c2nc(-c3ccc4ccc(-c5ccccc5)nc4c3)c3c(N)nccn32)C1 [Linsitinib] (partner 1 µM)
Procedure, shortened: (§1)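 For relative viability, nuclei counts in treated wells were divided by those in vehicle wells. Lung cancer cell lines had been pin-tool dosed in 1536-well plates the day after seeding and cultured for 5 days, then fixed and stained in one step (final 0.05% Triton X-100, 1% formaldehyde, 1 ug/ml Hoechst) and imaged at 4×. Doses were one drug alone or a fixed anchor-drug dose plus five library-drug doses (not always all listed) in √10 steps, and values are duplicate-plate medians.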

DM3189 + Phenformin = compound: C1CN(CCN1)C2=CC=C(C=C2)C3=CN4C(=C(C=N4)C5=CC=NC6=CC=CC=C56)N=C3 [DM3189] + N=C(N)NC(=N)NCCc1ccccc1 [Phenformin] (partner 250 µM)
Procedure, shortened: as §1

DM3189 + Crizotinib = compound: C1CN(CCN1)C2=CC=C(C=C2)C3=CN4C(=C(C=N4)C5=CC=NC6=CC=CC=C56)N=C3 [DM3189] + C[C@@H](Oc1cc(-c2cnn(C3CCNCC3)c2)cnc1N)c1c(Cl)ccc(F)c1Cl [Crizotinib] (partner 1 µM)
Procedure, shortened: as §1

DM3189 + Foretinib = compound: C1CN(CCN1)C2=CC=C(C=C2)C3=CN4C(=C(C=N4)C5=CC=NC6=CC=CC=C56)N=C3 [DM3189] + COc1cc2c(Oc3ccc(NC(=O)C4(C(=O)Nc5ccc(F)cc5)CC4)cc3F)ccnc2cc1OCCCN1CCOCC1 [Foretinib] (partner 0.25 µM)
Procedure, shortened: as §1

| Cell Line | relative viability (DM3189; 0.08 µM) | relative viability (DM3189; 0.253 µM) | relative viability (DM3189; 0.8 µM) | relative viability (DM3189; 2.53 µM) | relative viability (DM3189 + Linsitinib; first compound 0.08 µM) | relative viability (DM3189 + Linsitinib; first compound 0.253 µM) | relative viability (DM3189 + Linsitinib; first compound 0.8 µM) | relative viability (DM3189 + Linsitinib; first compound 2.53 µM) | relative viability (DM3189 + Phenformin; first compound 0.08 µM) | relative viability (DM3189 + Phenformin; first compound 0.253 µM) | relative viability (DM3189 + Phenformin; first compound 0.8 µM) | relative viability (DM3189 + Phenformin; first compound 2.53 µM) | relative viability (DM3189 + Crizotinib; first compound 0.08 µM) | relative viability (DM3189 + Crizotinib; first compound 0.253 µM) | relative viability (DM3189 + Crizotinib; first compound 0.8 µM) | relative viability (DM3189 + Crizotinib; first compound 2.53 µM) | relative viability (DM3189 + Foretinib; first compound 0.08 µM) | relative viability (DM3189 + Foretinib; first compound 0.253 µM) | relative viability (DM3189 + Foretinib; first compound 0.8 µM) | relative viability (DM3189 + Foretinib; first compound 2.53 µM) |
| --- | --- | --- | --- | --- | --- | --- | --- | --- | --- | --- | --- | --- | --- | --- | --- | --- | --- | --- | --- | --- |
| NCI-H2347 | 1.2 | 1.03 | 0.945 | 1.02 | 0.98 | 1 | 0.907 | 0.97 | 0.399 | 0.45 | 0.53 | 0.434 | 0.692 | 0.761 | 0.67 | 0.675 | 1.24 | 1.29 | 0.957 | 0.843 |
| HCC-827 | 1.02 | 1 | 0.956 | 0.983 | 0.982 | 0.863 | 0.888 | 0.938 | 0.443 | 0.444 | 0.441 | 0.431 | 0.896 | 0.89 | 0.866 | 0.896 | 1.1 | 0.945 | 0.953 | 0.935 |
| HCC-78 | 1.03 | 0.925 | 0.845 | 0.933 | 0.515 | 0.465 |  | 0.474 | 0.713 | 0.754 | 0.724 | 0.605 | 0.314 | 0.328 |  | 0.317 | 0.549 | 0.534 | 0.529 | 0.435 |
| NCI-H1993 | 1.01 | 0.913 | 0.831 | 1.05 |  | 0.616 | 0.641 | 0.706 | 0.473 | 0.481 | 0.527 | 0.566 |  | 0.846 | 0.744 | 0.991 | 0.766 | 0.744 | 0.672 | 0.907 |
| NCI-H1975 | 1.07 | 0.972 | 0.793 | 0.881 | 1.18 | 0.955 | 0.929 | 0.727 | 0.455 | 0.38 | 0.4 | 0.329 | 1.1 | 0.928 | 0.819 | 0.647 | 1.02 | 0.871 | 0.898 | 0.782 |
| NCI-H1563 | 1.06 | 0.958 | 1.03 | 1.12 | 1.2 | 1.22 | 1.13 | 1.25 | 0.722 | 0.602 | 0.593 | 0.631 | 0.944 | 0.865 | 0.833 | 0.899 | 0.953 | 0.817 | 0.98 | 0.987 |
| COR-L23 | 1.06 | 0.95 | 0.758 | 0.95 | 0.94 | 1.01 | 0.559 | 0.742 | 0.472 | 0.439 | 0.402 | 0.408 | 0.633 | 0.455 | 0.679 | 0.583 | 1.12 | 0.844 | 0.828 | 0.993 |
| CAL-12T | 1.06 | 0.927 | 0.975 | 1.09 | 0.714 | 0.823 | 0.925 | 0.884 | 0.588 | 0.571 | 0.526 | 0.703 | 0.508 | 0.658 | 0.704 | 0.543 | 1.2 | 1.07 | 1.13 | 1.12 |
| UMC-11 | 1.05 | 0.958 | 0.816 | 0.795 | 1.09 | 0.986 | 1.03 | 0.959 | 0.348 | 0.321 | 0.349 | 0.356 | 0.499 | 0.477 | 0.538 | 0.414 | 1.01 | 0.975 | 0.988 | 1.02 |
| NCI-H2228 | 1.18 | 1.1 | 0.811 | 0.447 | 0.68 | 0.763 | 0.572 | 0.66 | 0.368 | 0.344 | 0.29 | 0.189 | 0.695 | 0.363 | 0.385 | 0.14 | 0.802 | 0.828 | 0.7 | 0.517 |
